Results published in patent publication US4965280A, “Antifungal carbinols” (E. I. Du Pont de Nemours and Company, priority 1989, dated 1990).
In brackets after ≈: the same amount, converted by molar mass. Like-named read-outs stand apart in the source and are kept apart here.

Assays:
[1] = tested on: Candida albicans ATCC 11651; assay: In vivo systemic Candida infection in mice, primary assay; design: species or system Candida albicans; CF-1 female mice; settings: Candida albicans, 150 mg/kg per day, read-out: % Survival
Outline: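 CF-1 female mice (20 g, 10 per group) were infected IV with 0.2 ml of 1×10^7/ml C. albicans ATCC 11651, then given test compound subcutaneously at 50 or 150 mg/kg/day at 1 and 6 h post-infection and once daily for three more days. Survival was followed for 21 days against infected untreated mice; ≥70% protection at 14 days was scored active.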

Venturia inaequalis = assay: Example A apple scab; assay type: in vivo; settings: read-out: disease control rating, Ex. A
Outline: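 Spray application to run-off on apple seedlings; compound at 100 or 20 ppm in water with 250 ppm TREM 014 (polyhydric alcohol esters) and 6% acetone of final volume.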

[2] = tested on: Cercosporidium personatum; assay: Example B Peanut Late Leafspot; assay type: in vivo; settings: Nothopassalora personata, read-out: disease control rating, Ex. B
Outline: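 Spray suspensions at 100 or 20 ppm, prepared from acetone solutions (acetone 6% of final volume) in water carrying 250 ppm of a polyhydric alcohol ester surfactant, were applied to peanut seedlings until run-off.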

Botrytis cinerea = assay: Example C bean grey mold; assay type: in vivo; settings: Botrytis cinerea, 24 h, read-out: disease control rating, Ex. C
Outline: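 Spray rates: 100 and 20 ppm. Vehicle: purified water with 6% acetone by final volume plus 250 ppm TREM 014 (polyhydric alcohol esters). Host plants, broad bean seedlings, were wetted until run-off.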

[3] = tested on: Erysiphe graminis f. sp. tritici; assay: Example D wheat powdery mildew; assay type: in vivo; settings: Blumeria graminis, 144 h, read-out: disease control rating, Ex. D
Outline: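 Seedling wheat was treated by spraying to run-off; formulation used acetone as co-solvent (6% final) and TREM 014 surfactant at 250 ppm, with compound at 100 or 20 ppm.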

Pyricularia oryzae = assay: whole plant or invertebrate; assay type: in vivo; settings: Pyricularia oryzae, 120 h; for pest or weed control at 20 ppm: read-out: disease control rating, Ex. E, 20 PPM; for pest or weed control at 100 ppm: read-out: disease control rating, Ex. E, 100 PPM
Rhizoctonia solani [4] = assay: Example F rice sheath blight; assay type: in vivo; settings: Rhizoctonia solani, 144 h, read-out: disease control rating, Ex. F
Outline: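 Foliar run-off spray, rice seedlings: compound at 100 or 20 ppm in aqueous 250 ppm polyhydric alcohol ester surfactant, acetone 6% v/v final.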

Puccinia recondita = assay: Example G wheat leaf rust; assay type: in vivo; settings: read-out: disease control rating, Ex. G
Phytophthora infestans = assay: whole plant or invertebrate; assay type: in vivo; settings: Phytophthora infestans, in Solanum lycopersicum, read-out: disease control rating, Ex. H, 100 PPM
Plasmorpara viticola = assay: Example I grape downy mildew; assay type: in vivo; settings: read-out: disease control rating, Ex. I
Outline: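 First, each compound is taken up in acetone amounting to 6% of the final volume. It is then suspended in purified water containing 250 ppm of the polyhydric alcohol ester surfactant TREM 014, at 100 or 20 ppm. Finally, the suspension is sprayed onto grape seedlings until run-off.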

Pythium aphanadermatum = assay: Example J cucumber damping off; assay type: in vivo; design: key to phytotoxicity entry, Ex. J: P: disease control was not measured due to phytoxicity; settings: 5 kg/ha; for pest or weed control at 5000 g/ha: Pythium, 336 h, read-out: disease control rating, Ex. J
Procedure: […] Seeds and soil were then inoculated with a mixture of sand, cereal and mycelium of the fungus Pythium aphanadermatum, causal agent of cucumber damping off, and incubated in a growth chamber at 30° C. for 14 days. Disease ratings were then made.

Rhizoctonia solani [5] = assay: Example K cotton blight; assay type: in vivo; settings: 336 h, 5 kg/ha, read-out: disease control rating, Ex. K
Procedure: […] Seeds and soil were then inoculated with a mixture of sand, cereal and mycelium of the fungus Rhizoctonia solani, causal agent of cotton blight, and incubated in a growth chamber at 30° C. for 14 days. Disease ratings were then made.

Sclerotium rolfsii = assay: Example M southern blight; assay type: in vivo; settings: Agroathelia rolfsii, 336 h; 5 kg/ha; read-out: disease control rating, Ex. M
Procedure: […] Seeds and soil were then inoculated with a mixture of sand, cereal and mycelium of the fungus Sclerotium rolfsii, causal agent of sourthern blight, and incubated in a growth chamber at 30° C. for 14 days. Disease ratings were then made.

[6] = tested on: Candida albicans ATCC 11651; assay: In vitro antifungal MIC, microtiter broth dilution; settings: Candida albicans, ATCC11651, 24 h, read-out: MIC values, C. albicans, 30°, 24 hours
[7] = tested on: Aspergillus fumigatus ATCC 28214; assay: In vitro antifungal MIC, microtiter broth dilution; settings: Aspergillus fumigatus, ATCC28214, 24 h, read-out: MIC values, A. fumigatus, 30°, 24 hours
[8] = tested on: Fusarium oxysporum f. sp. cucumerinum; assay: Example L cucumber wilt; assay type: in vivo; settings: 336 h, 5 kg/ha, read-out: disease control rating, Ex. L
Procedure: […] Seeds and soil were then inoculated with a mixture of sand, cereal and mycelium of the fungus Fusarium oxysporum f. sp. cucumerinum, causal agent of cucumber wilt, and incubated in a growth chamber at 30° C. for 14 days. Disease ratings were then made.

SMILES	responders at 150 mg/kg ([1]; ATCC11651, 168 h, day 7)	responders at 150 mg/kg ([1]; ATCC11651, 336 h, day 14)	responders at 150 mg/kg ([1]; ATCC11651, 504 h, day 21)	pest or weed control at 100 ppm (Botrytis cinerea)	pest or weed control at 100 ppm (Pyricularia oryzae)	pest or weed control at 100 ppm (Rhizoctonia solani [4])	pest or weed control at 100 ppm (Phytophthora infestans)	pest or weed control at 100 ppm (Plasmorpara viticola)	pest or weed control at 5000 g/ha (Pythium aphanadermatum)	pest or weed control at 5000 g/ha (Rhizoctonia solani [5])	pest or weed control at 5000 g/ha (Sclerotium rolfsii)	MIC [6]	MIC [7]	pest or weed control at 100 ppm (Venturia inaequalis)	pest or weed control at 100 ppm [2]	pest or weed control at 100 ppm [3]	pest or weed control at 100 ppm (Puccinia recondita)	also measured
C=C(c1cccc(F)c1)C(O)(Cn1cncn1)c1ccc(Cl)cc1Cl (stereo not shown) [Example 16, 2-(2,4-Dichlorophenyl)-3-(3-fluorophenyl)-1-(1H-1,2,4-triazol-1-yl)-3-buten-2-ol]	100%	100%	100%	46%	0%	0%	0%	23%	0%	0%	0%	0.03 µg/mL (≈ 0.0793 µM)	6.3 µg/mL (≈ 16.7 µM)	–	–	–	–	pest or weed control at 20 ppm (Venturia inaequalis): 74%; pest or weed control at 20 ppm [2]: 99%; pest or weed control at 20 ppm (Botrytis cinerea): 27%; pest or weed control at 20 ppm [3]: 67%; pest or weed control at 20 ppm (Pyricularia oryzae): 0%; pest or weed control at 20 ppm (Rhizoctonia solani [4]): 0%; pest or weed control at 20 ppm (Puccinia recondita): 100%
C=C(c1cccc(F)c1)C(O)(Cn1cncn1)c1ccc(Cl)cc1 (stereo not shown) [Example 17]	100%	90%	70%	89%	0%	81%	0%	42%	0%	0%	0%	0.03 µg/mL (≈ 0.0873 µM)	12.5 µg/mL (≈ 36.4 µM)	–	–	–	–	pest or weed control at 20 ppm (Venturia inaequalis): 80%; pest or weed control at 20 ppm [2]: 100%; pest or weed control at 20 ppm (Botrytis cinerea): 57%; pest or weed control at 20 ppm [3]: 95%; pest or weed control at 20 ppm (Pyricularia oryzae): 0%; pest or weed control at 20 ppm (Rhizoctonia solani [4]): 0%; pest or weed control at 20 ppm (Puccinia recondita): 100%
C=C(c1ccc(Cl)cc1Cl)C(O)(Cn1cncn1)c1ccc(Cl)cc1Cl (stereo not shown) [Example 100]	100%	50%	30%	96%	95%	80%	0%	83%	–	0%	0%	0.03 µg/mL (≈ 0.0699 µM)	3.2 µg/mL (≈ 7.46 µM)	100%	100%	83%	100%	phytotoxicity entry, Ex. J (Pythium aphanadermatum): P
C=C(c1ccc(Cl)cc1Cl)C(O)(Cn1cncn1)c1ccc(Cl)cc1 (stereo not shown) [Example 101]	100%	90%	60%	94%	0%	80%	0%	100%	0%	0%	0%	0.03 µg/mL (≈ 0.076 µM)	12.5 µg/mL (≈ 31.7 µM)	100%	100%	83%	100%	–
C=C(c1ccccc1Cl)C(O)(Cn1cncn1)c1ccccc1F (stereo not shown) [Example 620]	100%	100%	90%	96%	51%	100%	0%	0%	0%	0%	0%	0.03 µg/mL (≈ 0.0873 µM)	0.05 µg/mL (≈ 0.145 µM)	100%	100%	98%	100%	–
C=C(c1ccccc1Cl)C(O)(Cn1cncn1)c1ccccc1Cl (stereo not shown) [Example 622]	100%	100%	100%	84%	0%	100%	0%	26%	0%	0%	0%	0.03 µg/mL (≈ 0.0833 µM)	0.1 µg/mL (≈ 0.278 µM)	100%	100%	99%	100%	–
C=C(c1ccc(F)cc1)C(O)(Cn1ncnc1I)c1ccccc1F (stereo not shown) [Example 1377]	–	–	–	96%	58%	100%	0%	44%	0%	–	–	1.6 µg/mL (≈ 3.53 µM)	100 µg/mL (≈ 221 µM)	100%	100%	92%	100%	pest or weed control at 5000 g/ha [8]: 0%
OC(Cn1cncn1)(c1ccc(F)cc1)C1(c2ccccc2)CO1 (stereo not shown) [Example 1527]	100%	70%	20%	93%	–	35%	0%	0%	0%	–	–	0.4 µg/mL (≈ 1.23 µM)	6.3 µg/mL (≈ 19.4 µM)	0%	100%	100%	100%	pest or weed control at 5000 g/ha [8]: 0%
